In patent US6391915B2, “Propanolamine derivatives” (Fujisawa Pharmaceutical Co., Ltd., priority 1997, dated 2002):

Tests used:
[1] = test system: isolated rat distal colon; assay: Effect on isolated rat distal colon (spontaneous contractions, organ bath); assay type: cell-based; conditions: 0.5 h; male SD rat distal colon strip, Tyrode solution, 37° C., spontaneous contractions observed over 30 minutes
Procedure: Effect on isolated rat distal colon:
Male SD rats (180-230 g) were used. Animals were fasted for 24 hours prior to experiment. Distal colon was removed immediately after sacrifice and placed in an organ bath containing 25 ml Tyrode solution aerating with 95% O2, 5% CO2 at 37° C. The strip was mounted under 0.5 g tension and spontaneous contractions were recorded isometrically. After the mobility was of a uniform size, test compound was added to an organ bath and the contractions were observed over a 30 minutes period. Effect of test compound was calculated by comparing contractions before and after test compound.

[2] = test system: isolated non-pregnant rat uterus; assay: Effect on isolated non-pregnant rat uterus (spontaneous contractions, organ bath); assay type: cell-based; conditions: 20 min; female SD rat uterus, estradiol-induced oestrus, Locke solution, 37° C., spontaneous contractions observed over 20 minutes
Procedure: Effect on isolated non-pregnant rat uterus
Female SD rats (150-180 g) were used. 48 and 24 hours prior to use, rats were given estradiol (ovahormon benzoat Trademark, Teikoku Hormone Mfg. Co., Ltd.) subcutaneously at a dose of 40 μg/rat to induce oestrus. The animals were killed and uteri were removed. Each strip was placed in an organ bath containing 25 ml Locke solution aerating with 95% O2, 5% CO2 at 37° C. under 1 g tension. Contractions were recorded isometrically. After the spontaneous contractions were of a uniform size, test compound was added to organ bath. The motility was observed over a 20 minutes period. Effect of test compound was calculated by comparing contractions before and after test compound.

SMILES | melting point | IC50 [1] | IC50 [2]
O=C([O-])COc1cccc2c1CCCC(NC[C@H](O)COc1ccccc1)C2.[Na+] (stereo partly drawn) [Example 10, sodium [6,7,8,9-tetrahydro-6-[((2S)-2-hydroxy-3-phenoxypropyl)amino]-5H-benzocyclohepten-1-yloxy]acetate] | 65 °C (dec.) |  | 
C=CCOc1ccccc1OCC(O)CN[C@H]1CCc2ccc(OCC(=O)OCC)cc2C1.O=C(O)C(=O)O (stereo partly shown) | 105 to 109 °C |  | 
CCOC(=O)COc1cccc2c1CCCC(NC[C@H](O)COc1ccccc1)C2.Cl (stereo partly shown) | 43 to 58 °C |  | 
CCOC(=O)COc1ccc2c(c1)CC(NC[C@H](O)COc1ccccc1)CCC2.Cl (stereo partly shown) | 122 to 128 °C |  | 
O=C([O-])COc1ccc2c(c1)CCCC(NC[C@H](O)COc1ccccc1)C2.[Na+] (stereo partly drawn) [Example 11, Sodium [6,7,8,9-tetrahydro-6-[((2S)-2-hydroxy-3-phenoxypropyl)amino]-5H-benzocyclohepten-2-yloxy]acetate] | 166 to 174 °C |  | 
CCOC(=O)COc1cccc2c1CCCC(N(Cc1ccccc1)C[C@H](O)COc1ccccc1)C2 (stereo partly drawn) [Example 1, (2S)-1-[N-benzyl-(1-ethoxycarbonylmethoxy-6,7,8,9-tetrahydro-5H-benzocyclohepten-6-yl)amino]-3-phenoxy-2-propanol] |  | 4.2 nM | 370 nM
